The CheMixHub ionic liquid set

Experiment: xn = mol fraction of the nth substance listed

CO/N=C(\C(=O)N[C@@H]1C(=O)N2C(C(=O)[O-])=C(CSc3nc(=O)c(=O)[n-]n3C)CS[C@H]12)c1csc(N)n1.[Na+].[Na+] + CCCCCCCC[n+]1ccc(C)cc1.[Br-] + O
viscosity [mPa·s], 100 kPa
Details	x1 = 0.0003495, x2 = 0	x1 = 0.0008732, x2 = 0	x1 = 0.001391, x2 = 0	x1 = 0.002502, x2 = 0	x1 = 0.00312, x2 = 0	x1 = 0.003888, x2 = 0	x1 = 0.004767, x2 = 0	x1 = 0.005484, x2 = 0
288.15 K	1.196	1.273	1.365	1.604	1.745	1.964	2.205	2.45
293.15 K	1.053	1.12	1.2	1.399	1.527	1.701	1.918	2.122
298.15 K	0.935	0.994	1.062	1.231	1.348	1.495	1.674	1.858
303.15 K	0.829	0.885	0.945	1.1	1.195	1.323	1.48	1.638
308.15 K	0.744	0.794	0.849	0.982	1.07	1.184	1.322	1.455

CO + CCCCCCCCn1cc[n+](C)c1.[Cl-]
Details	viscosity [mPa·s]
313.15 K, 101 kPa, x1 = 1	0.444

CO/N=C(\C(=O)N[C@@H]1C(=O)N2C(C(=O)[O-])=C(CSc3nc(=O)c(=O)[n-]n3C)CS[C@H]12)c1csc(N)n1.[Na+].[Na+] + CCCCCC[n+]1ccc(C)cc1.[Br-] + O
viscosity [mPa·s], 100 kPa
Details	x1 = 0.0003495, x2 = 0	x1 = 0.0008732, x2 = 0	x1 = 0.001391, x2 = 0	x1 = 0.002502, x2 = 0	x1 = 0.00312, x2 = 0	x1 = 0.003888, x2 = 0	x1 = 0.004767, x2 = 0	x1 = 0.005484, x2 = 0
288.15 K	1.196	1.273	1.365	1.604	1.745	1.964	2.205	2.45
293.15 K	1.053	1.12	1.2	1.399	1.527	1.701	1.918	2.122
298.15 K	0.935	0.994	1.062	1.231	1.348	1.495	1.674	1.858
303.15 K	0.829	0.885	0.945	1.1	1.195	1.323	1.48	1.638
308.15 K	0.744	0.794	0.849	0.982	1.07	1.184	1.322	1.455

CC[n+]1ccn(C)c1.F[B-](F)(F)F + CCCCCC[n+]1ccn(C)c1.F[B-](F)(F)F
101 kPa, x1 = 1
Details	viscosity [mPa·s]
299.15 K	34.52
308.15 K	25.54
